In the supplement of paper PMC11208160:

Test: recombinant barcode read abundance after kanamycin selection (control-corrected) (log10(CPM+1)); higher = more efficient recombination; sequences stand for … in AGTGCAGAGAAAATCGGCCAGTTTTCTCTGCCTGCAGTCCGCATGCCGT…AGATTTATGCAGCGGACTGCCTTTCTCCCAAAGTGATAAACCGGACAGTATCATGGACCGGTTTTCCCGGTAATCCGTATTTGCAAGGTTGGTTTCACT; site = the 11-nt target
Outline: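 This pooled E. coli screen matched targets with IS621 bridge RNA target-binding loops. Plating was done in duplicate on chloramphenicol/ampicillin LB agar as a control and on chloramphenicol/ampicillin/kanamycin plus 0.1 mM IPTG. Recombination efficiency reflects barcode counts at recombinant junctions as counts per million, averaged and control-corrected. The figures are log10(CPM+1).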
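Also: IS621 recombinase and bridge RNA in Escherichia coli cells.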

Sequence | recombinant barcode read abundance (log10)
GTCTCGGCTTGGGTTCTAACCTGTTGCTG (site GTCTCGGCTCA) | 0.0917
GTCTCTACTTGGGTTCTAACCTGTTGCCG (site GTCACTACTCG) | 0.234
GTCTCTACTTGGGTTCTAACCTGTTGCCG (site GTCCCTACTCG) | 0.593
GTCTCTACTTGGGTTCTAACCTGTTGCCG (site GTCGCTACTCG) | 0.117
GTCTCTACTTGGGTTCTAACCTGTTGCCG (site GTCTCTACTCG) | 0.0442
GTCTCTTCTTGGGTTCTAACCTGTTGCTA (site GTCTCGTCTAA) | 0.0282
GTCTCTTCTTGGGTTCTAACCTGTTGCTA (site GTCTCTTCTTA) | 0.306
GTCTTACCTTGGGTTCTAACCTGTTGCCT (site GTCATACCTAG) | 0.0521
GTCTTACCTTGGGTTCTAACCTGTTGCCT (site GTCCTACCTAG) | 1.21
GTCTTACCTTGGGTTCTAACCTGTTGCCT (site GTCGTACCTAG) | 0.098
GTCTTACCTTGGGTTCTAACCTGTTGCCT (site GTCTTACCTAG) | 1.34
GTCTTACCTTGGGTTCTAACCTGTTGCTT (site GTCTTACCTAA) | 0.74
GTCTTACCTTGGGTTCTAACCTGTTGCTT (site TTCATACCTAA) | 0.128
GTCTTCCCTTGGGTTCTAACCTGTTGCCG (site ATCTTACCTCG) | 0.0566
GTCTTCCCTTGGGTTCTAACCTGTTGCCG (site GTCTTCCCTCG) | 1.5
GTCTTCCCTTGGGTTCTAACCTGTTGCGT (site GTCATGCCTAC) | 0.0371
GTCTTCCCTTGGGTTCTAACCTGTTGCGT (site GTCTTCCCTAC) | 1.74
GTGAAGCCTTGGGTTCTAACCTGTTGCCT (site ATGAAGCCTAG) | 0.826
GTGAAGCCTTGGGTTCTAACCTGTTGCCT (site CTGAAGCCTAG) | 0.464
GTGAAGCCTTGGGTTCTAACCTGTTGCCT (site GTGAAGCCTAG) | 1.48
GTGAAGCCTTGGGTTCTAACCTGTTGCCT (site TTGAAGCCTAG) | 0.421
GTGACCGCTTGGGTTCTAACCTGTTGCCT (site GTAACCGCTAG) | 2

Sequence | recombinant barcode read abundance (log10)
GTGACCGCTTGGGTTCTAACCTGTTGCCT (site GTCACCGCTAG) | 0.235
GTGACCGCTTGGGTTCTAACCTGTTGCCT (site GTGACCGCTAG) | 1.89
GTGACCGCTTGGGTTCTAACCTGTTGCCT (site GTTACCGCTAG) | 0.59
GTGACCTCTTGGGTTCTAACCTGTTGCTG (site GGGACCTCTGA) | 0.0723
GTGACCTCTTGGGTTCTAACCTGTTGCTG (site GTGACCTCTCA) | 1.51
GTGAGGCCTTGGGTTCTAACCTGTTGCCT (site ATGAGGCCTAG) | 1.19
GTGAGGCCTTGGGTTCTAACCTGTTGCCT (site CTGAGGCCTAG) | 0.151
GTGAGGCCTTGGGTTCTAACCTGTTGCCT (site GTGAGGCCTAG) | 0.153
GTGAGGCCTTGGGTTCTAACCTGTTGCCT (site TTGAGGCCTAG) | 0.0445
GTGAGGTCTTGGGTTCTAACCTGTTGCCT (site GTGAGGTCTAA) | 0.107
GTGAGGTCTTGGGTTCTAACCTGTTGCCT (site GTGAGGTCTAC) | 0.343
GTGAGGTCTTGGGTTCTAACCTGTTGCCT (site GTGAGGTCTAG) | 1.62
GTGAGGTCTTGGGTTCTAACCTGTTGCCT (site GTGAGGTCTAT) | 0.442
GTGAGTCCTTGGGTTCTAACCTGTTGCGT (site GTGAGTCCTAC) | 2.61
GTGAGTCCTTGGGTTCTAACCTGTTGCGT (site GTTGGTCCTAC) | 0.0363
GTGATCCCTTGGGTTCTAACCTGTTGCTG (site GTGAACTCTCA) | 0.0648
GTGATCCCTTGGGTTCTAACCTGTTGCTG (site GTGATCCCTCA) | 1.87
GTGCACACTTGGGTTCTAACCTGTTGCGG (site GTGCACACTCC) | 2.44
GTGCACACTTGGGTTCTAACCTGTTGCGG (site GTGCACTCTCC) | 0.322
GTGCAGACTTGGGTTCTAACCTGTTGCCT (site GTACAGACTAG) | 2.5
GTGCAGACTTGGGTTCTAACCTGTTGCCT (site GTCCAGACTAG) | 0.483
GTGCAGACTTGGGTTCTAACCTGTTGCCT (site GTGCAGACTAG) | 2.05

Sequence | recombinant barcode read abundance (log10)
GTGCAGACTTGGGTTCTAACCTGTTGCCT (site GTTCAGACTAG) | 0.367
GTGCCCGCTTGGGTTCTAACCTGTTGCGG (site GTGCCCGCTCC) | 1.11
GTGCCCGCTTGGGTTCTAACCTGTTGCGG (site GTGCCCTCTCG) | 0.205
GTGCGCCCTTGGGTTCTAACCTGTTGCGT (site GTGCGCCCTAC) | 2.13
GTGCGCCCTTGGGTTCTAACCTGTTGCGT (site GTGCGCCCTCC) | 0.617
GTGGAGGCTTGGGTTCTAACCTGTTGCCT (site ATGGCGGCTAG) | 0.371
GTGGAGGCTTGGGTTCTAACCTGTTGCCT (site GTGGAGGCTAG) | 1.5
GTGGAGTCTTGGGTTCTAACCTGTTGCGT (site GTGGAGTCTAC) | 1.49
GTGGAGTCTTGGGTTCTAACCTGTTGCGT (site TATCCTCCTCG) | 0.0104
GTGGCGTCTTGGGTTCTAACCTGTTGCCT (site GTGGCGTCTAG) | 1.79
GTGGCGTCTTGGGTTCTAACCTGTTGCCT (site TTGGCCTCTAG) | 0.104
GTGGGCGCTTGGGTTCTAACCTGTTGCCT (site GTAGGCGCTAG) | 0.973
GTGGGCGCTTGGGTTCTAACCTGTTGCCT (site GTCGGCGCTAG) | 0.165
GTGGGCGCTTGGGTTCTAACCTGTTGCCT (site GTGGGCGCTAG) | 1.33
GTGGGCGCTTGGGTTCTAACCTGTTGCCT (site GTTGGCGCTAG) | 0.524
GTGGTAACTTGGGTTCTAACCTGTTGCCT (site GTGGTAACTAG) | 0.647
GTGGTAACTTGGGTTCTAACCTGTTGCCT (site GTGGTACCTAG) | 0.19
GTGGTAACTTGGGTTCTAACCTGTTGCCT (site GTGGTAGCTAG) | 0.3
GTGGTAACTTGGGTTCTAACCTGTTGCCT (site GTGGTATCTAG) | 0.0678
GTGTACTCTTGGGTTCTAACCTGTTGCTT (site GTGGACTCTTA) | 0.0612
GTGTACTCTTGGGTTCTAACCTGTTGCTT (site GTGTACTCTAA) | 1.35
GTGTATCCTTGGGTTCTAACCTGTTGCAT (site GTGTATCCTAT) | 1.7

Sequence | recombinant barcode read abundance (log10)
GTGTATCCTTGGGTTCTAACCTGTTGCAT (site GTGTCTCCTAT) | 0.279
GTGTATCCTTGGGTTCTAACCTGTTGCAT (site GTGTGTCCTAT) | 0.0301
GTGTATCCTTGGGTTCTAACCTGTTGCAT (site GTGTTTCCTAT) | 0.0918
GTGTGAACTTGGGTTCTAACCTGTTGCCG (site GAGTTAACTCG) | 0.0504
GTGTGAACTTGGGTTCTAACCTGTTGCCG (site GTGTGAACTCG) | 0.992
GTGTTTGCTTGGGTTCTAACCTGTTGCCT (site GAGTTTGCTAG) | 0.0456
GTGTTTGCTTGGGTTCTAACCTGTTGCCT (site GCGTTTGCTAG) | 0.0586
GTGTTTGCTTGGGTTCTAACCTGTTGCCT (site GGGTTTGCTAG) | 0.0616
GTGTTTGCTTGGGTTCTAACCTGTTGCCT (site GTGTTTGCTAG) | 0.596
GTTAGAACTTGGGTTCTAACCTGTTGCTT (site CCATTGTCTCG) | 0.0117
GTTAGAACTTGGGTTCTAACCTGTTGCTT (site GTTAGAACTAA) | 0.123
GTTCAAACTTGGGTTCTAACCTGTTGCAT (site ATTCAAACTAG) | 0.245
GTTCAAACTTGGGTTCTAACCTGTTGCAT (site GTTCAAACTAT) | 1.2
GTTCAGACTTGGGTTCTAACCTGTTGCCT (site GTACAGACTAG) | 1.15
GTTCAGACTTGGGTTCTAACCTGTTGCCT (site GTCCAGACTAG) | 0.948
GTTCAGACTTGGGTTCTAACCTGTTGCCT (site GTGCAGACTAG) | 0.0632
GTTCAGACTTGGGTTCTAACCTGTTGCCT (site GTTCAGACTAG) | 1.58
GTTCCCTCTTGGGTTCTAACCTGTTGCTT (site GCTCACTCTAA) | 0.245
GTTCCCTCTTGGGTTCTAACCTGTTGCTT (site GTTCCCTCTAA) | 1.9
GTTCGGACTTGGGTTCTAACCTGTTGCGG (site GATCGGACTCC) | 0.634
